From paper PMC5762535, “Novel indazole-based small compounds enhance TRAIL-induced apoptosis by inhibiting the MKK7-TIPRL interaction in hepatocellular carcinoma” (Oncotarget, 2017)
Where two headings read alike, the source gives them in different places.

Key:
Huh7 tumor xenografts = assay: In vivo Huh7 xenograft assay; set-up: species or system BALB/c nude mice
From the text: Five-week-old female BALB/c nude mice were purchased from SLC Japan and were maintained in accordance with the guidelines of the Institutional Review Committee for Animal Care and Use of the Korea Research Institute of Bioscience and Biotechnology. Protocol approval was obtained from the same committee.
Huh7 cells were harvested and subcutaneously injected (5 × 10^6 cells/mouse) into nude mice (N = 6/group for TRT-0173 or TRT-0029 experiments). When the tumor volume reached ~100 mm^3, the mice were divided into four groups and treated with vehicle, TRAIL (2.5 mg/kg, intraperitoneal), lead compound (TRT-0029 or TRT-0173, 30 mg/kg, intravenously), or lead compound (30 mg/kg, intravenously) combined with TRAIL (2.5 mg/kg, intraperitoneal) daily for 11 days (11 treatments in total). The tumor volumes were measured every 2 days for 11 days after treatment, and tumor volume was calculated according to the following equation: V (mm^3) = width^2 (mm^2) × length (mm)/2. Body weight and tumor mass were measured 11 days after treatment.

caspase-3 and PARP = assay: Western blot of cleaved caspase-3 and PARP in Huh7 cells; type: cell-based, human; details: lead compounds co-treated with TRAIL 100 ng/ml, TRAIL tested alone
Method: The cells were lysed in lysis buffer (50 mM Tris-HCl, pH 7.4, 150 mM NaCl, 1% Triton™ X-100, 0.1% SDS, 1 mM EDTA, 1 mM Na3VO4, 1 mM NaF, and protease inhibitor cocktail) and clarified by centrifugation at 14,000×g for 20 min at 4°C. The protein samples were then subjected to Western blotting with the indicated antibodies.

caspase-3 = assay: Caspase 3 activity assay in Huh7 cells; type: cell-based, human
Method: The caspase 3 activity was measured using a caspase-3 luminescent assay kit (Promega, Madison, WI, USA), according to the manufacturer's instructions, and a luminescence plate reader (Molecular Devices Co., Sunnyvale, USA).

[1] = MTT cell viability assay, Huh7 cells; type: cell-based, human; details: human, Huh7 cells; Huh7, MTT, 10 µM, 24 hrs, without TRAIL; Supplementary Table 3; read-out: Cell viability assay Compound only
Method: (§1) Cell viability was assessed using a 3-(4,5-dimethylthiazol-2-yl)-2,5-diphenyltetrazolium bromide (MTT, Sigma-Aldrich, St. Louis, USA) assay. The cells were seeded at a density of 1 × 10^4 cells per well and treated with the lead compounds and/or TRAIL. After 24 or 48 h, MTT (2 mg/ml) was added to each well, and the absorbance was measured using a microplate reader (Bio-Rad, Hercules, USA) at 570 nm. The cell viability was calculated as the percentage of viable cells in the drug-treated group versus the untreated control using the following equation: cell viability (%) = [OD (drug)-OD (blank)]/[OD (control)-OD (blank)] × 100.

Huh7 cells = assay: MTT cell viability assay, Huh7 cells; type: cell-based, human
Method: as §1

MKK7-TIPRL interaction = molecular target: T1, MKK7-TIPRL interaction (Homo sapiens, UniProt O14733+O75663); assay: GST pull-down assay of MKK7-TIPRL in 293T cells; type: cell-based; details: 10 μM TRT-0029 or 20 μM TRT-0173, 24 h
T1 sequence (O14733 1-419): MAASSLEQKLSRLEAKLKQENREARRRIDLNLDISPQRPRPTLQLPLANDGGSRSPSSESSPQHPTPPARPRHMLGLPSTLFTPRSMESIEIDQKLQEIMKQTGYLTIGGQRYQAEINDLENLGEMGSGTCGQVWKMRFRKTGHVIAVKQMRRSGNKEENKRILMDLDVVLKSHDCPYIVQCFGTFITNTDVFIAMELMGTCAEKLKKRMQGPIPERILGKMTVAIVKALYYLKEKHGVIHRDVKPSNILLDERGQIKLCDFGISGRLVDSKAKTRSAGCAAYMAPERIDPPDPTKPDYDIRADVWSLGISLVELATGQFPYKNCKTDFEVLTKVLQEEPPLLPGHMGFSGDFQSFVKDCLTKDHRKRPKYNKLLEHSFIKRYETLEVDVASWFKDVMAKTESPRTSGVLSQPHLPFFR
T1 sequence (O75663 1-272): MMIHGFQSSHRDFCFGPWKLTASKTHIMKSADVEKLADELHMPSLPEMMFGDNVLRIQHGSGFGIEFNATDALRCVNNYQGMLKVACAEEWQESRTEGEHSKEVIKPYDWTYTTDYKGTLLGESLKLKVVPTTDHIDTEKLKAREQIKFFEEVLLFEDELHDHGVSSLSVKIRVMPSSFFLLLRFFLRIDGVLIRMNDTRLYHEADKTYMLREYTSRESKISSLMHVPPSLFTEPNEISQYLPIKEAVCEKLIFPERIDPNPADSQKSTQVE
Method: The full-length cDNAs of human TIPRL and MKK7 were subcloned into the pCGN vector (W. Herr, Cold Spring Harbor Laboratory) and the pEBG vector containing a GST tag to construct the HA-tagged and the GST-tagged plasmids, respectively. 293T cells were transfected with expression vector constructs using the TurboFect Transfection Reagent (Thermo Fisher Scientific, Lafayette, USA) and then were lysed in RIPA buffer (50 mM Tris-HCl, 150 mM NaCl, 1% Triton™ X-100, 0.1% SDS, 1 mM EDTA, 1 mM Na3VO4, and 1 mM NaF) containing complete protease inhibitor cocktail (Roche Applied Science, Indianapolis, USA). Whole-cell extracts were incubated with Glutathione Sepharose 4B (GE Healthcare, Uppsala, Sweden), and the eluted GST-tagged proteins were subjected to Western blotting using the indicated antibodies.

HepG2 cells = assay: MTT cell viability assay, HepG2 cells; type: cell-based, human; details: 10 µM TRT-0029 or 20 µM TRT-0173 plus TRAIL 100 ng/ml, 24 h
Method: as §1

Pharmacokinetics in rats = type: in vivo, Sprague-Dawley rats; details: rat; for AUC: male, Sprague-Dawley, plasma, after 24 h
Method: Male Sprague-Dawley rats anesthetized with ketamine were cannulated with polyethylene tubing in the femoral vein. A solution of lead compound (TRT-0029 or TRT-0173) was prepared by dissolving the compounds in a mixture of dimethyl sulfoxide (DMSO)/ polyethylene glycol 400 (PEG 400)/ distilled water (0.5: 4: 5.5), and was administered to rats by a bolus injection in the femoral vein. Blood samples were collected via the femoral vein 0, 2, 10, and 30 min, as well as 1, 2, 4, 6, 8, and 24 h after intravenous administration. For oral administration, blood was collected 0.25, 0.5, 1, 2, 4, 6, 8, and 24 h after treatment. The plasma fractions were prepared by centrifugation and were stored at −70°C before the liquid chromatography-tandem mass spectrometry (LC/MS/MS) analysis. The concentrations of target compound in the plasma were measured using LC-MS/MS (4000 QTRAP, AB SCIEX, Foster City, CA) in multiple reaction monitoring (MRM) mode. The PK parameters were determined with non-compartmental methods using Phoenix WinNolin (Pharsight, Mountain View, CA). The area under the plasma concentration-time curve (AUC) was calculated using the trapezoidal rule extrapolated to infinity. The terminal elimination half-life (t1/2), and the systemic clearance (CL) were obtained. The peak plasma concentration (Cmax) after oral administration was obtained by visual inspection of the plasma concentration-time plot of each rat.

SMILES: CC(=O)c1cc(-n2ncc3cc(NS(=O)(=O)c4ccccc4)ccc32)c(Cl)cc1Cl [TRT-0029]
- tumor volume / tumor growth at 11 days, compound + TRAIL compared with compound alone (Huh7 tumor xenografts; compound 30 mg/kg i.v. plus TRAIL 2.5 mg/kg i.p. daily): significantly reduced
- reduction of average tumor mass, lead compound + TRAIL (Huh7 tumor xenografts; compound 30 mg/kg i.v. plus TRAIL 2.5 mg/kg i.p. daily for 11 days, versus vehicle control): 64.5%
- apoptosis signals (cleaved caspase-3, PARP) by Western blotting (caspase-3 and PARP): effectively activated apoptosis signals
- activity of caspase-3, co-treatment with TRAIL compared to compound alone or TRAIL alone (caspase-3; Huh7, 24 h): significantly increased
- Caspase 3 activity Compound + TRAIL/Compound (caspase-3; each compound at its working concentration and time of the table): 2.20 ratio
- viability at 24 h, 10 µM [1]: 69%
- reduction of cell viability of Huh7 cells by co-treatment with TRAIL, compared to TRAIL alone (Huh7 cells; 10 μM TRT-0029 or 20 μM TRT-0173 plus TRAIL, 24 h): ~90%
- viability at 10 µM (Huh7 cells; Homo sapiens, Huh-7, Huh7, MTT, 10 µM, 24 hrs, with TRAIL, Supplementary Table 3, read-out: Cell viability assay Compound + TRAIL): 11%
- effective working concentration (Huh7 cells; Huh7 cells, various doses with and without TRAIL (100 ng/ml), 24 h): 10 µM
- interaction between MKK7 and TIPRL in GST pull-down assay, compared with untreated cells (MKK7-TIPRL interaction): significantly decreased the interaction
- decrease of HepG2 viability by co-treatment with TRAIL (HepG2 cells): 36%
- AUC (Pharmacokinetics in rats; iv, i.v. 5 mg/kg, read-out: AUC (i.v.)): 10000 ng·h/mL
- AUC (Pharmacokinetics in rats; po, p.o. 5 mg/kg, read-out: AUC (p.o.)): 1220 ng·h/mL
- oral availability (Pharmacokinetics in rats; 5 mg/kg i.v. and p.o.): 11%
